Experimental data: patent US7994321B2, “Substituted thieno[3,2-C]pyridine-7-carboxylic acid derivatives” (Hoffmann-La Roche Inc., priority 2006, dated 2011)

Each compound was assayed against T1, Human recombinant EE-tagged PDGFRβ (Homo sapiens, UniProt P09619) (assay: PDGFRβ IMAP Kinase Assay (fluorescence polarization)). Conditions: Kinase Enzyme Inhibition Assay; IMAP FP; FITC-labeled peptide substrate, ATP; 60 minutes at room temperature.
T1 construct: made in house; host or cells: Sf9 cells
Format: biochemical
Source text: The assay uses IMAP Fluorescence polarization (FP) assay platform based on the high affinity binding of phosphate by immobilized metal coordination complexes. The substrate used in this assay is a Fitc labeled peptide: FITC-ALTSNQEYLDLSMPL. Upon substrate peptide's phosphorylation, the IMAP binding reagent complexes with phosphate groups on phosphopeptides generated in the PDGFRβ reaction, which causes a change in the rate of the molecular motion of the peptide, and results in an increase in the FP values.
• Enzyme: Human recombinant EE-tagged PDGFRβ, expressed in Sf9 cells (stock concentration 74.5 μM, from Protein Biochemistry, RDT); store at −80° C. • Substrate: Synthesized Fitc labeled peptide: FITC-ALTSNQEYLDLSMPL; store at −20° C. • Positive Control Staurosporine (1 mM stock in DMSO, Calbiochem) • Robotic System Workstation: Tomtec Quadra • Reader: Acquest 384.1356 (Molecular Devices); FP reading method • Assay Plate: BD Falcon 30-μL 384 assay plate (Cat # 353972), and Costar 384 black plate (Cat # 3710) Assay Procedures: (1) Prepare Assay Buffer-MOPS Buffer: 20 mM MOPS (Teknova) pH 7.1, 5 mM sodium acetate, 6.25 mM MgCl2, 0.5 mM EDTA, 1 mM DTT, 0.04 mM NaVO4, 0.02% BSA. (2) Prepare Substrate Mix containing peptide (1 μM) and ATP (48.6 μM) in assay buffer. Add 8 μL of Substrate Mix in BD Falcon assay plates. (3) Prepare PDGFRβ (0.2 μM) in assay buffer. (4) Dilute compounds and positive control in DMSO (40 fold, 4-pt in series). Add 18 μL/well of assay buffer into 384 polypropylene compound plates containing 2 μL of compound solution in each well, mix and transfer 4 μl/well of diluted solution into the BD Falcon assay plates containing 8 μL of Substrate Mix (step 2) in each well. Then add 4 μl/well of PDGFRβ solution (step 3) in all wells except blank wells. Add 4 μl/well of assay buffer into blank wells. (5) Incubate at room temperature for 60 minutes. (6) Prepare 1:400 IMAP bead mix following the instruction given in the IMAP Bead Binding System Kit (Molecular Devices), and add 30 μl/well of IMAP bead mix in Costar 384 black plates. (7) Transfer 2 μl/well of reaction solution (step 4-5) into Costar 384 black plates containing 30 μl/well of bead mix (step 6). (8) Incubate at RT for 2 hours. (9) Read FP values at 485 nm and 530 nm on Acquest.
Kinase Enzyme Inhibition Assay (IC50)

T1 sequence (P09619 33-1106): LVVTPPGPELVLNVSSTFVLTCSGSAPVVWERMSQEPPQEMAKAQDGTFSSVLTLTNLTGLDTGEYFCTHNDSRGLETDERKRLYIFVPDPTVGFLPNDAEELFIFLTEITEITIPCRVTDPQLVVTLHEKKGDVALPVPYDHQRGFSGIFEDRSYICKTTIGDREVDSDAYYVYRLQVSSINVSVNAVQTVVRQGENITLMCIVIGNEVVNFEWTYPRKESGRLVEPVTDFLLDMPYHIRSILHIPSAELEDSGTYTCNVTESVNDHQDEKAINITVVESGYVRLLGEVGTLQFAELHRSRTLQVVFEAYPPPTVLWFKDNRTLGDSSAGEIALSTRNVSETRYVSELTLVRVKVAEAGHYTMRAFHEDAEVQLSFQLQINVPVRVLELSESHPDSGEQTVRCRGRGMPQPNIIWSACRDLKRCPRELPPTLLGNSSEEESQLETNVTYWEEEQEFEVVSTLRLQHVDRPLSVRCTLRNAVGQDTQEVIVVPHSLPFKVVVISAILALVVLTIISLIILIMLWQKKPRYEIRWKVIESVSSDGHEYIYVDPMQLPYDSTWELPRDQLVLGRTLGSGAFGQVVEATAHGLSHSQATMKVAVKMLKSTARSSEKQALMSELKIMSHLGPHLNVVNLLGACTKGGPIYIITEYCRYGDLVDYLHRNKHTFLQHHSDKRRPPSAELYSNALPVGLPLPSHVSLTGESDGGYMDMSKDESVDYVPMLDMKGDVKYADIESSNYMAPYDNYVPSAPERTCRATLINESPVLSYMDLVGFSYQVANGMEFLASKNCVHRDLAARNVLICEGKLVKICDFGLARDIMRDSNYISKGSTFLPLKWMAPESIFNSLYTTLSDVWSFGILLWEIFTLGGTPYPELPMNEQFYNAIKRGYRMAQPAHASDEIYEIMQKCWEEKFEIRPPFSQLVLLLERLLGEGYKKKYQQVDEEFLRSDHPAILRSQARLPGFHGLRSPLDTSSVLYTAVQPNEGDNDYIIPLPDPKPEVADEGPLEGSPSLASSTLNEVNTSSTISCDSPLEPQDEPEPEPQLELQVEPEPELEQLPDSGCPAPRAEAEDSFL

| IC50 [nM] | SMILES |
| --- | --- |
| < 20000 | COc1cccc(C(=O)Nc2ccc(C)c(OCc3csc4c(C(=O)NCCO)cncc34)c2)c1 [Example 31, 3-[5-(3-Methoxy-benzoylamino)-2-methyl-phenoxymethyl]-thieno[3,2-c]pyridine-7-carboxylic acid (2-hydroxy-ethyl)-amide] |
| 440 | CCOC(=O)c1cncc2c(COc3cccc(NC(=O)c4cccc(OC)c4)c3)csc12 [Example 13, 3-[3-(3-Methoxy-benzoylamino)-phenoxymethyl]-thieno[3,2-c]pyridine-7-carboxylic acid ethyl ester] |
| 990 | O=C(Nc1cccc(OCc2csc3c(C(=O)NCCO)cncc23)c1)c1ccccc1 [Example 7, 3-(3-Benzoylamino-phenoxymethyl)-thieno[3,2-c]pyridine-7-carboxylic acid (2-hydroxy-ethyl)-amide] |
| 340 | CCOC(=O)c1cncc2c(COc3cccc(NC(=O)c4ccc(F)cc4)c3)csc12 [Example 8, 3-[3-(4-Fluoro-benzoylamino)-phenoxymethyl]-thieno[3,2-c]pyridine-7-carboxylic acid ethyl ester] |
| 113 | O=C(Nc1cccc(OCc2csc3c(C(=O)NCCO)cncc23)c1)c1cccc(Cl)c1 [Example 16, 3-[3-(3-Chloro-benzoylamino)-phenoxymethyl]-thieno[3,2-c]pyridine-7-carboxylic acid (2-hydroxy-ethyl)-amide] |
